US20250170126A1 (MITSUBISHI TANABE PHARMA CORPORATION, priority 2022, published 2025)

target: Human B0AT1 (Homo sapiens (Human), UniProt Q695T7); assay: hB0AT1 inhibitory test (phenylalanine uptake); type: cell-based; settings: Human B0AT1 stable expression CHO cells; [3H]-L-phenylalanine uptake, phenylalanine 0.25 mM
Description: A test compound dissolved in dimethyl sulfoxide (DMSO) was added to a 96 well plate for solid phase radioactivity measurement containing a scintillator at the bottom of the well (final concentration of DMSO 0.5%). DMSO alone as a control and DMSO containing N-(4-bromophenyl)-3,5-dichloro-2-hydroxybenzamide (final concentration […]) for the is measurement of B0AT1 non-specific uptake were similarly added at 0.5 μL per well. Human B0AT1 stable expression CHO cells suspended in a buffer (buffer containing 96 mM sodium chloride, 2 mM potassium chloride, 1.8 mM calcium chloride, 1 mM magnesium chloride, 0.01% bovine serum albumin, and 10 mM 2-[4-(2-hydroxyethyl)-1-piperazinyl]ethanesulfonic acid) were added by 90 μL to 75000 cells/well. After standing at ordinary temperature for 30 min or longer, the cells were subjected to a phenylalanine uptake experiment. A buffer containing L-phenylalanine and [3,4,5-3H]-L-phenylalanine was added by 10 μL per well (final concentration of phenylalanine 0.25 mM), and the radioactivity of the plate bottom surface at ordinary temperature was measured with a scintillation counter over time, and the radioactivity value after 100 to 200 min was analyzed. A value obtained by subtracting the B0AT1 non-specific uptake from the control uptake was taken as 100%, and the concentration necessary for each test compound to achieve 50% inhibition (IC50 value) was determined by nonlinear regression using a logistic model.

Chain of Human B0AT1 (Q695T7 whole entry): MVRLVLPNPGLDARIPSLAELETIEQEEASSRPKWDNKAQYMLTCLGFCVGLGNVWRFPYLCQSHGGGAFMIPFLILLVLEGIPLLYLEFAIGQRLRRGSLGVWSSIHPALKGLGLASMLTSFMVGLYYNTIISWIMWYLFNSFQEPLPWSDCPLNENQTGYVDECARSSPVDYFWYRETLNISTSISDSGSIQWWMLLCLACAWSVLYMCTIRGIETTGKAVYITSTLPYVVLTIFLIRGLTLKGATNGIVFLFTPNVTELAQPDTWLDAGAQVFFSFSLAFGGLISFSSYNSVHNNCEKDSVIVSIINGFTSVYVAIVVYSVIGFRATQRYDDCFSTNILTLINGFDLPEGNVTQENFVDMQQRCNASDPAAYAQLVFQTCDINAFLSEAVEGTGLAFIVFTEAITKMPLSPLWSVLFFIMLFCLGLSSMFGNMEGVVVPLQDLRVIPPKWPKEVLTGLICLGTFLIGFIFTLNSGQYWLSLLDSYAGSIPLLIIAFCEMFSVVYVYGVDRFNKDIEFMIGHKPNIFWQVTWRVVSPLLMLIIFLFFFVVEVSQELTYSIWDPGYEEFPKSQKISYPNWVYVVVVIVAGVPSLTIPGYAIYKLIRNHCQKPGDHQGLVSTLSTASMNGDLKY

**Q.** With `CCN(CC)C(=O)c1cnn2c1CN(C(=O)CNC(=O)/C=C/c1ccc(C(F)(F)F)cc1)CC2` [I-223] as the compound, how does the IC50 read?
**A.** 41 nM

**Q.** For `Cc1cc2n(n1)CCCN2C(=O)CNC(=O)/C=C/c1ccc(C(F)(F)F)cc1` [I-184], which IC50 is on record?
**A.** 47 nM

**Q.** `O=C(/C=C/c1ccc(C(F)(F)F)cc1)NCC(=O)N1CCN2CCOCC2C1` (stereo not shown) [I-41] was tested. Which IC50 did it give?
**A.** 833 nM

**Q.** With `Cc1nnc(CN(CC2(F)CC2)C(=O)CNC(=O)/C=C/c2ccc(C(F)(F)F)cc2)o1` [I-209] as the compound, how does the IC50 read?
**A.** 32 nM

**Q.** `CCOC(=O)N1CCN(C(=O)CNC(=O)/C=C/c2ccc(C(F)(F)F)cc2)CC1` [I-27] was tested. Which IC50 did it give?
**A.** 720 nM

**Q.** Which IC50 does the source give for `O=C(/C=C/c1ccc(C(F)(F)F)cc1)NCC(=O)N1CCc2nc[nH]c2C1` [I-75] here?
**A.** 99 nM

**Q.** With `O=C(/C=C/c1ccc(S(F)(F)(F)(F)F)cc1)NCC(=O)N1CCn2nc(C(=O)O)cc2C1` [I-272] as the compound, how does the IC50 read?
**A.** 141 nM

**Q.** For `CCC1Cn2ncnc2CN1C(=O)CNC(=O)/C=C/c1ccc(C(F)(F)F)cc1` (stereo not shown) [I-218], which IC50 is on record?
**A.** 355 nM

**Q.** With `COC1CN(C(=O)CNC(=O)/C=C/c2ccc(C(F)(F)F)cc2)Cc2ccc(Br)cc21` (stereo not shown) [I-217] as the compound, how does the IC50 read?
**A.** 114 nM

**Q.** With `O=C(/C=C/c1ccc(C(F)(F)F)cc1)NCC(=O)N1CCn2c(n[nH]c2=O)C1` [I-38] as the compound, how does the IC50 read?
**A.** 46 nM

**Q.** With `CN1CCN(C(=O)CNC(=O)/C=C/c2ccc(OCC3CC3)cc2)CC1` [I-114] as the compound, how does the IC50 read?
**A.** 925 nM

**Q.** How did the IC50 turn out when `CO[C@H]1CCN(C(=O)CNC(=O)/C=C/c2ccc(C(F)(F)F)cc2)C1` [I-60] was run?
**A.** 918 nM

**Q.** For `O=C(/C=C/c1ccc(C(F)(F)F)cc1)NCC(=O)N1CCOC(c2ccccc2)C1` (stereo not shown) [I-14], which IC50 is on record?
**A.** 815 nM

**Q.** How did the IC50 turn out when `CNS(=O)(=O)c1ccc2c(c1)CCN(C(=O)CNC(=O)/C=C/c1ccc(C(F)(F)F)cc1)C2` [I-221] was run?
**A.** 44 nM

**Q.** How did the IC50 turn out when `O=C(/C=C/c1ccc(C(F)(F)F)cc1)NCC(=O)N1CCn2ccnc2C1` [I-21] was run?
**A.** 65 nM

**Q.** `CN1CCN(C(=O)CNC(=O)/C=C/c2ccc(C(F)(F)F)cc2)[C@H](C(=O)O)C1` [I-123, (2S)-4-methyl-1-[2-[[(E)-3-[4-(trifluoromethyl)phenyl]prop-2-enoyl]amino]acetyl]piperazine-2-carboxylic acid] was tested. Which IC50 did it give?
**A.** 175 nM

**Q.** Which IC50 does the source give for `O=C(/C=C/c1ccc(C(F)(F)F)cc1)NCC(=O)N1CCc2cc(Br)ccc21` [I-260] here?
**A.** 24 nM

**Q.** With `COCCN(CC(=O)N(C)C)C(=O)CNC(=O)/C=C/c1ccc(C(F)(F)F)cc1` [I-149, (E)-N-[2-[[2-(dimethylamino)-2-oxoethyl]-(2-methoxyethyl)amino]-2-oxoethyl]-3-[4-(trifluoromethyl)phenyl]prop-2-enamide] as the compound, how does the IC50 read?
**A.** 170 nM

**Q.** How did the IC50 turn out when `NC(=O)c1ccc2c(c1)CCN(C(=O)CNC(=O)/C=C/c1ccc(C(F)(F)F)cc1)C2` [I-281] was run?
**A.** 21 nM

**Q.** `O=C(/C=C/c1ccc(C(F)(F)F)cc1)NCC(=O)N1CCN2C(=O)OC[C@H]2C1` [I-32] was tested. Which IC50 did it give?
**A.** 212 nM

**Q.** Which IC50 does the source give for `O=C(/C=C/c1ccc(C(F)(F)F)cc1)NCC(=O)N1CCn2nccc2C1` [I-93] here?
**A.** 31 nM

**Q.** `O=C(/C=C/c1ccc(C(F)(F)F)cc1)NCC(=O)N1CCc2cn[nH]c2C1` [I-42] was tested. Which IC50 did it give?
**A.** 73 nM

**Q.** How did the IC50 turn out when `O=C(/C=C/c1ccc(C(F)(F)F)cc1)NCC(=O)N1CCn2nc(C(=O)O)c(-c3ccc(C(F)(F)F)cc3)c2C1` [I-265] was run?
**A.** 66 nM

**Q.** `CN1CCN(C(=O)CNC(=O)/C=C/c2ccc(C(F)(F)F)cc2)[C@@H](C(=O)N(C)C)C1` [I-138, (2R)-N,N,4-trimethyl-1-[2-[[(E)-3-[4-(trifluoromethyl)phenyl]prop-2-enoyl]amino]acetyl]piperazine-2-carboxamide] was tested. Which IC50 did it give?
**A.** 406 nM

**Q.** For `CN1CCN(C(=O)CNC(=O)/C=C/c2ccc(-c3ccc(F)cc3)cc2)CC1` [I-126, (E)-3-[4-(4-fluorophenyl)phenyl]-N-[2-(4-methylpiperazin-1-yl)-2-oxoethyl]prop-2-enamide], which IC50 is on record?
**A.** 38 nM

**Q.** With `CN1CCN(C(=O)CNC(=O)/C=C/c2ccc(C3CC3)cc2)CC1` [I-110] as the compound, how does the IC50 read?
**A.** 98 nM

**Q.** `O=C(/C=C/c1ccc(C(F)(F)F)cc1)NCC(=O)N1CCn2ncnc2C1` [I-35] was tested. Which IC50 did it give?
**A.** 51 nM

**Q.** How did the IC50 turn out when `CNC(=O)CC(COC)N(CCOC)C(=O)CNC(=O)/C=C/c1ccc(C(F)(F)F)cc1` (stereo not shown) [I-130, 4-methoxy-3-[2-methoxyethyl-[2-[[(E)-3-[4-(trifluoromethyl)phenyl]prop-2-enoyl]amino]acetyl]amino]-N-methylbutanamide] was run?
**A.** 486 nM

**Q.** How did the IC50 turn out when `CN1CCN(C(=O)CNC(=O)/C=C/c2ccc(OC(F)(F)F)cc2)CC1` [I-112] was run?
**A.** 56 nM

**Q.** With `O=C(/C=C/c1ccc(C(F)(F)F)cc1)NCC(=O)N1CCn2cc(C(=O)O)nc2C1` [I-140, 7-[2-[[(E)-3-[4-(trifluoromethyl)phenyl]prop-2-enoyl]amino]acetyl]-6,8-dihydro-5H-imidazo[1,2-a]pyrazine-2-carboxylic acid] as the compound, how does the IC50 read?
**A.** 328 nM

**Q.** With `Cn1cnc2c1CN(C(=O)CNC(=O)/C=C/c1ccc(C(F)(F)F)cc1)C2` [I-67] as the compound, how does the IC50 read?
**A.** 141 nM

**Q.** How did the IC50 turn out when `Cc1nnc([C@H]2CN(C(=O)CNC(=O)/C=C/c3ccc(C(F)(F)F)cc3)CCN2C)o1` [I-131, (E)-N-[2-[(3R)-4-methyl-3-(5-methyl-1,3,4-oxadiazol-2-yl)piperazin-1-yl]-2-oxoethyl]-3-[4-(trifluoromethyl)phenyl]prop-2-enamide] was run?
**A.** 1930 nM

**Q.** `O=C(/C=C/c1ccc(C(F)(F)F)cc1)NCC(=O)N1CCn2nc(C(=O)O)c(Br)c2C1` [I-269] was tested. Which IC50 did it give?
**A.** 145 nM

**Q.** How did the IC50 turn out when `CN1CCN(C(=O)CNC(=O)/C=C/c2ccc(C(F)(F)F)cc2)C(c2ccccc2)C1` (stereo not shown) [I-45] was run?
**A.** 24 nM

**Q.** How did the IC50 turn out when `CN(C)C(=O)[C@H]1CCN(C(=O)CNC(=O)/C=C/c2ccc(C(F)(F)F)cc2)C1` [I-145, (3S)-N,N-dimethyl-1-[2-[[(E)-3-[4-(trifluoromethyl)phenyl]prop-2-enoyl]amino]acetyl]pyrrolidine-3-carboxamide] was run?
**A.** 1700 nM

**Q.** With `CN(C)C(=O)c1nc2n(n1)CCN(C(=O)CNC(=O)/C=C/c1ccc(C(F)(F)F)cc1)C2` [I-206] as the compound, how does the IC50 read?
**A.** 77 nM

**Q.** For `CS(=O)(=O)Nc1ccc2c(c1)CCN(C(=O)CNC(=O)/C=C/c1ccc(C(F)(F)F)cc1)C2` [I-188], which IC50 is on record?
**A.** 34 nM

**Q.** With `CN1CCN(C(=O)CNC(=O)/C=C/c2ccc(-c3ccccc3)cc2)CC1` [I-103, (E)-N-[2-(4-methylpiperazin-1-yl)-2-oxoethyl]-3-(4-phenylphenyl) prop-2-enamide] as the compound, how does the IC50 read?
**A.** 31 nM

**Q.** Which IC50 does the source give for `Cc1nc(-c2ccc(/C=C/C(=O)NCC(=O)N3CCN(C)CC3)cc2)no1` [I-107] here?
**A.** 1160 nM

**Q.** With `O=C(/C=C/c1ccc(C(F)(F)F)cc1)NCC(=O)N1CCn2cncc2C1` [I-23] as the compound, how does the IC50 read?
**A.** 112 nM

**Q.** `O=C(/C=C/c1ccc(C(F)(F)F)cc1)NCC(=O)N1CCc2cc(C(=O)O)c(F)cc2C1` [I-262] was tested. Which IC50 did it give?
**A.** 435 nM

**Q.** Which IC50 does the source give for `CNC(=O)[C@H]1CN(C)CCN1C(=O)CNC(=O)/C=C/c1ccc(C(F)(F)F)cc1` [I-139, (2R)-N,4-dimethyl-1-[2-[[(E)-3-[4-(trifluoromethyl)phenyl]prop-2-enoyl]amino]acetyl]piperazine-2-carboxamide] here?
**A.** 133 nM

**Q.** With `CC1CN(C(=O)CNC(=O)/C=C/c2ccc(C(F)(F)F)cc2)CCN1C` (stereo not shown) [I-6] as the compound, how does the IC50 read?
**A.** 24 nM

**Q.** For `CN1CCN(C(=O)CNC(=O)/C=C/c2ccc(-c3cc(F)c(F)c(F)c3)cc2)CC1` [I-127], which IC50 is on record?
**A.** 88 nM

**Q.** How did the IC50 turn out when `O=C(/C=C/c1ccc(C(F)(F)F)cc1)NCC(=O)N1CCN2C(=O)CCC2C1` (stereo not shown) [I-43] was run?
**A.** 80 nM

**Q.** How did the IC50 turn out when `O=C(/C=C/c1ccc(C(F)(F)F)cc1)NCC(=O)N1CCNC(=O)CC1` [I-15] was run?
**A.** 228 nM

**Q.** Which IC50 does the source give for `COc1nccc2c1CCN(C(=O)CNC(=O)/C=C/c1ccc(C(F)(F)F)cc1)C2` [I-90] here?
**A.** 23 nM

**Q.** How did the IC50 turn out when `O=C(/C=C/c1ccc(C(F)(F)F)cc1)NCC(=O)N1CCC(n2cccn2)CC1` [I-73] was run?
**A.** 228 nM

**Q.** Which IC50 does the source give for `CC1CN(C(=O)CNC(=O)/C=C/c2ccc(C(F)(F)F)cc2)Cc2ccccc21` (stereo not shown) [I-182] here?
**A.** 168 nM
